The numbers were not newly measured in PMC10205807, “Cross-species comparison in nonclinical pharmacokinetics of lenvatinib by a simple HPLC with ultraviolet detection” (Scientific Reports, 2023), which cites them from elsewhere.

Read-outs that look alike come from different tables or passages of the source.

On the set-up of data set [1]: method as in PMID 30514402. The settings on record: monkeys; cited from earlier work.
On the set-up of data set [2]: method as in PMID 30514402. The settings on record: dogs; cited from earlier work.
On the set-up of data set [3]: method as in PMID 30514402. The settings on record: mice; cited from earlier work.
Details of data set [4]: method as in PMID 28115222. The settings on record: dogs; cited from earlier work.
Details of data set [5]: method as in PMID 28115222. The conditions noted are these: rats; cited from earlier work.
Details of data set [6]: method as in PMID 28115222. The conditions noted are these: mice; cited from earlier work.
Details of data set [7]: method as in PMID 29620050. The conditions noted are these: male rats, intravenous; cited from earlier work.
On the set-up of data set [8]: method as in PMID 29620050. The conditions noted are these: dogs, intravenous; cited from earlier work.

As for `Cc1cn(-c2cc(NC(=O)c3ccc(C)c(Nc4nccc(-c5cccnc5)n4)c3)cc(C(F)(F)F)c2)cn1` [nilotinib], the CLtot was 0.639 L/h/kg in data set [1], 0.19 L/h/kg in data set [2] and 0.131 L/h/kg in data set [3]. The Oral bioavailability in data set [1] is given as 16%; in data set [2], 24%; in data set [3], 50%. Moreover, the volume of distribution (Vdss) (usually a proportionality between amount in the body and measured concentration, not a real space) in data set [1] is 5.737 L/kg; in data set [2] it was 1.157 L/kg; in data set [3], 0.29 L/kg.

As for `CCOc1cc2ncc(C#N)c(Nc3ccc(OCc4ccccn4)c(Cl)c3)c2cc1NC(=O)/C=C/[C@H]1CCCN1C` [pyrotinib], in data set [4], the CLtot is 1.68 L/h/kg, the F is 20.0% and the Vdss was 8.157 L/kg. Also, in data set [5], the CLtot was 0.21 L/h/kg, the F is recorded as 43.5% and the volume of distribution (Vdss) is 1.35 L/kg. In data set [6], the CLtot is 2.23 L/h/kg, the F is 20.6% and the distribution volume (Vdss) is 5.027 L/kg.

`COc1cc2c(Oc3ccc4[nH]c(C)cc4c3F)ccnc2cc1OCC1(N)CC1` [anlotinib]: in data set [7], the CLtot is listed as 6.34 L/h/kg and the Vdss was 25.4 L/kg. In addition, in data set [8], the CLtot is 0.38 L/h/kg and the Vdss is listed as 6.8 L/kg.
